According to patent publication US11642336B2, “5-HT2A agonists for use in treatment of depression” (priority 2019, dated 2023):
Counter-ions that a name gives are not always drawn. Like-named read-outs stand apart in the source and are kept apart here. Marks after values point to notes of the source that are not given here.

Experiments:
Assay type in all cases: cell-based
human 5-HT2A [1] = target: T1, human 5-HT2A (Homo sapiens (Human), UniProt P28223); assay: cell-based; conditions: IP assay; for 5-HT2A Rmax: % of Rmax of 5-HT; for EC50: duplicate determinations
5-HT2B = 5-HT2B (Homo sapiens (Human), UniProt P41595); assay: IP assay (Eurofins, IP1 HTRF), HEK293 cells; conditions: for 5-HT2B Rmax: % of Rmax of 5-HT; for Selectivity EC50 5-HT2B/EC50 5-HT2A: bounds are conservative estimates; for EC50: duplicate determinations, read-out: 5-HT2B EC50;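 for all read-outs here: agonist effect read as cellular IP1 production by HTRF using a europium cryptate anti-IP1 antibody donor and D2-labeled IP1 acceptor, eight compound concentrations in each cell line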
5-HT2B, sequence (P41595 whole entry, looked up): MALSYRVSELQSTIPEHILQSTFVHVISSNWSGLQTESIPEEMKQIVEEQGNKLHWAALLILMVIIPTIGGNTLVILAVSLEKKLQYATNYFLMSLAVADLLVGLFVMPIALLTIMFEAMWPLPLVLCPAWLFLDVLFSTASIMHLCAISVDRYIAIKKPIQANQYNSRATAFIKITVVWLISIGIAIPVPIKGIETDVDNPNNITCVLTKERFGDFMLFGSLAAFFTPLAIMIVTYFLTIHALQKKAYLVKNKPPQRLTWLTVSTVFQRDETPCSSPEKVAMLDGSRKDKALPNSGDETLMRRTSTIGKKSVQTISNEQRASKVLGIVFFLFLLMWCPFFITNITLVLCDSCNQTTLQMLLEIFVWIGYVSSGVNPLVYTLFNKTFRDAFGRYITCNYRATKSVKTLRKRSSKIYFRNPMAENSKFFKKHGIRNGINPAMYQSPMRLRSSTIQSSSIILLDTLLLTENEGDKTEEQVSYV
Experimental: The agonist properties of the compounds were characterized at HEK293 cell lines expressing the human 5-HT2A, human 5-HT2B or human 5-HT2C receptors in an IP assay essentially as previously described.^19 The testing was performed by Eurofins. In the assay, the agonist activity of the compound at the receptors is investigated by measuring its effect on IP1 production in the cell using the Homogeneous Time Resolved Fluorescence (HTRF) detection method. […] Following incubation, the cells were lysed, and the fluorescence acceptor (D2-labeled IP1) and fluorescence donor (anti-IP1 antibody labeled with europium cryptate) were added. […] The test compounds were characterized in eight different concentrations in duplicate at each of the three cell lines.

5-HT2C = 5-HT2C (Homo sapiens (Human), UniProt P28335); assay: Ca2+/Fluo-4 assay, stable h5-HT2C-HEK293 cell line; conditions: for EC50: agonist potency, n = 3-4; for 5-HT2C Rmax ± S.E.M: % of the Rmax of 5-HT; for 5-HT2C agonist activity (n.a./w.a.): tested up to 50 μM;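 for all read-outs here: Agonist-induced intracellular Ca2+ rise read by Fluo-4 fluorescence in HEK293 cells stably expressing the human 5-HT2C receptor, each compound run in duplicate on three or more occasions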
5-HT2C, sequence (P28335 whole entry, looked up): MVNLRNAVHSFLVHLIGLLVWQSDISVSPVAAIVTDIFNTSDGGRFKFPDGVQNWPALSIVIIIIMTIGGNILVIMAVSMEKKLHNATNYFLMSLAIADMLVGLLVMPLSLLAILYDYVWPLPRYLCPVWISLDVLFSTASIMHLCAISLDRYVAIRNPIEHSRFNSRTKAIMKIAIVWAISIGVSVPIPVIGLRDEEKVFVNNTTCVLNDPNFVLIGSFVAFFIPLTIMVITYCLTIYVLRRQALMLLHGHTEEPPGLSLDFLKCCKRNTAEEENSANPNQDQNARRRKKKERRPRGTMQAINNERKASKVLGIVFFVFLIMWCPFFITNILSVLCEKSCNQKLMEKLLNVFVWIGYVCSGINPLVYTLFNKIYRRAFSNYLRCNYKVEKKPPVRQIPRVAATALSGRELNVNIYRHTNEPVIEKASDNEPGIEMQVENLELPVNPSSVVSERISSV
Experimental: The functional properties of the compounds were characterised at stable HEK293 cell lines stably expressing the human 5-HT2A receptor or human 5-HT2C receptor in the Ca^2+/Fluo-4 assay essentially as previously described.^10 Briefly, the cells were split into poly-D-lysine-coated black 96-well plates with clear bottoms (6×10^4 cells/well). The following day the culture medium was aspirated and the cells were incubated in 50 μl assay buffer [Hanks Buffered Saline Solution containing 20 mM HEPES, 1 mM CaCl2, 1 mM MgCl2, 2.5 mM probenecid, pH 7.4] supplemented with 6 mM Fluo-4/AM at 37° C. for 1 hour. Next, the buffer was aspirated, the cells were washed once with 100 μl assay buffer, and then 100 μl assay buffer was added to the cells (in the antagonist experiments the compound was added at this point). […] The compounds were characterized in duplicate at least three times at each cell line.

human 5-HT2A [2] = target: T1, human 5-HT2A; assay: cell-based; conditions: for 5-HT2A Rmax ± S.E.M: % of the Rmax of 5-HT; for Selectivity EC50 5-HT2C/EC50 5-HT2A: Ca2+/Fluo-4 assay, bounds are conservative estimates; for EC50: agonist potency, n = 3-4
[3] = read-out: 5-HT2A [pEC50 ± S.E.M.] (converted)

SMILES	5-HT2A Rmax (human 5-HT2A [1])	EC50 (human 5-HT2A [1])	5-HT2B Rmax (5-HT2B)	Selectivity EC50 5-HT2B/EC50 5-HT2A (5-HT2B)	EC50 (5-HT2B)	EC50 (5-HT2C; read-out: 5-HT2C EC50)	5-HT2A Rmax ± S.E.M (human 5-HT2A [2])	Selectivity EC50 5-HT2C/EC50 5-HT2A (human 5-HT2A [2])	EC50 (human 5-HT2A [2]; read-out: 5-HT2A EC50)	EC50 (human 5-HT2A [2]; [3])	5-HT2A Rmax (human 5-HT2A [1]; hydrochloride)	5-HT2B Rmax (5-HT2B; hydrochloride)	Selectivity EC50 5-HT2B/EC50 5-HT2A (5-HT2B; hydrochloride)	5-HT2C Rmax ± S.E.M (5-HT2C)	5-HT2A Rmax ± S.E.M (human 5-HT2A [2]; hydrochloride)	Selectivity EC50 5-HT2C/EC50 5-HT2A (human 5-HT2A [2]; hydrochloride)	5-HT2C agonist activity (n.a./w.a.) (5-HT2C)	EC50 (5-HT2C; read-out: 5-HT2C [pEC50 ± S.E.M.] (converted))
CCOc1cc(CC)c(OC)cc1[C@@H]1CCCNC1 [Compound 43, (S)-3-(2-ethoxy-4-ethyl-5-methoxyphenyl)piperidine]	45%	670 nM	11%	1.6	1100 nM	> 50000 nM	42 ± 6%	>1,000^e	140 nM	138 nM	–	–	–	–	–	–	–	–
COc1cc(C(F)(F)F)c(OC)cc1C1CCC(C)NC1 (single isomer, unassigned) [Compound 37, 5-(2,5-dimethoxy-4-(trifluoromethyl)phenyl)-2-methylpiperidine hydrochloride]	–	1500 nM	–	–	620 nM	3400 nM	–	–	270 nM	263 nM	110%	54%	0.4	33 ± 5%	90 ± 10%	13	–	–
CCOc1cc(C(F)(F)F)c(OC)cc1[C@@H]1CCCNC1.Cl [Compound 30, (S)-3-(2-ethoxy-5-methoxy-4-(trifluoromethyl)phenyl)piperidine hydrochloride]	35%	140 nM	26%	–	1200 nM	–	40 ± 3%	–	–	38 nM	–	–	–	–	–	–	–	–
COc1cc([C@@H]2CCCNC2)c(OC)cc1Br [Compound 12, (S)-3-(4-bromo-2,5-dimethoxyphenyl)piperidine]	70%	250 nM	48%	–	190 nM	> 50000 nM	–	–	69 nM	–	–	–	–	–	–	–	–	–
COc1cc([C@@H]2CCCNC2)c(OC)cc1Cl [Compound 10, (S)-3-(4-Chloro-2,5-dimethoxyphenyl)piperidine]	62%	380 nM	50%	–	240 nM	> 50000 nM	–	–	66 nM	–	–	–	–	–	–	–	n.a. [@ 50 μM]^a (no agonist activity: the compound did not evoke significant responses at concentrations up to 50 μM)	–
COc1cc([C@@H]2CCCNC2)c(OC)cc1I [Compound 14, (S)-3-(4-Iodo-2,5-dimethoxyphenyl)piperidine]	72%	45 nM	57%	–	170 nM	> 50000 nM	–	–	–	37.2 nM	–	–	–	–	–	–	–	–
COc1cc([C@@H]2CCCNC2)c(OC)cc1SC.Cl [Compound 18, (S)-3-(2,5-dimethoxy-4-(methylthio)phenyl)piperidine hydrochloride]	72%	270 nM	64%	–	180 nM	510 nM	–	–	–	25.7 nM	–	–	–	–	–	–	–	–
COc1cc(C(F)(F)F)c(OC)cc1C1CCCNC1C.Cl (stereo not drawn) [Compound 35, 3-(2,5-dimethoxy-4-(trifluoromethyl)phenyl)-2-methylpiperidine hydrochloride]	70%	260 nM	28%	3.3	850 nM	3000 nM	75 ± 4%	41	73 nM	–	–	–	–	21 ± 2%	–	–	–	2950 nM
CCSc1cc(OC)c([C@@H]2CCCNC2)cc1OC.Cl [Compound 28, (S)-3-(2,5-dimethoxy-4-(ethylthio)phenyl)piperidine hydrochloride]	62%	180 nM	55%	–	240 nM	–	–	–	–	–	–	–	–	–	–	–	–	–
COc1cc([C@@H]2CCCNC2)c(OCF)cc1C(F)(F)F [Compound 39, (S)-3-(2-(fluoromethoxy)-5-methoxy-4-(trifluoromethyl)phenyl)piperidine]	60%	300 nM	54%	3.6	1100 nM	–	40 ± 5%	>300^e	150 nM	–	–	–	–	–	–	–	–	–
COc1cc([C@@H]2CCCNC2)c(OC)cc1C#N [Compound 16, (S)-2,5-dimethoxy-4-(piperidin-3-yl)benzonitrile]	77%	980 nM	45%	–	5000 nM	> 50000 nM	–	–	270 nM	275 nM	–	–	–	–	–	–	–	–
CCOc1cc([C@@H]2CCCNC2)c(OC)cc1C(F)(F)F.Cl [Compound 20, (S)-3-(5-ethoxy-2-methoxy-4-(trifluoromethyl)phenyl)piperidine hydrochloride]	79%	36 nM	57%	–	580 nM	290 nM	95 ± 1%	–	10 nM	10.2 nM	–	–	–	–	–	–	–	–
COc1cc([C@@H]2CCCNC2)c(OC)cc1C.Cl [Compound 24, (S)-3-(2,5-dimethoxy-4-methylphenyl)piperidine hydrochloride]	67%	560 nM	38%	–	360 nM	–	–	–	100 nM	105 nM	–	–	–	–	–	–	–	–
COc1cc(C(F)(F)F)c(F)cc1[C@@H]1CCCNC1.Cl [Compound 51, (S)-3-(5-fluoro-2-methoxy-4-(trifluoromethyl)phenyl)piperidine hydrochloride]	59%	260 nM	37%	2.8	740 nM	–	79 ± 5%	>100^e	140 nM	–	–	–	–	–	–	–	–	–
COc1cc([C@@H]2CCCNC2)c(OC)cc1SC(C)C [Compound 26, (S)-3-(4-(isopropylthio)-2,5-dimethoxyphenyl)piperidine]	72%	1100 nM	43%	–	1200 nM	–	–	–	160 nM	155 nM	–	–	–	–	–	–	–	–
CCOc1cc(C(F)(F)F)c(OCC)cc1[C@@H]1CCCNC1.Cl [Compound 22, (S)-3-(2,5-diethoxy-4-(trifluoromethyl)phenyl)piperidine hydrochloride]	54%	170 nM	–	>1,000^c	> 100000 nM	–	47 ± 6%	>300^e	100 nM	102 nM	–	–	–	–	–	–	–	–
CCCCc1cc(OC)c([C@@H]2CCCNC2)cc1OC [Compound 57, (S)-3-(4-butyl-2,5-dimethoxyphenyl)piperidine hydrochloride]	62%	190 nM	18%	–	350 nM	–	–	–	270 nM	–	–	–	–	–	–	–	w.a.	–
CCc1cc(OC)c([C@@H]2CCCNC2)cc1OC.Cl [Compound 32, (S)-3-(4-ethyl-2,5-dimethoxyphenyl)piperidine hydrochloride]	85%	110 nM	54%	–	280 nM	–	79 ± 4%	–	–	40.7 nM	–	–	–	–	–	–	–	–
COc1cc(C(F)(F)F)c(SC)cc1[C@H]1CCCNC1.Cl [Compound 44, (R)-3-(2-methoxy-5-(methylthio)-4-(trifluoromethyl)phenyl)piperidine hydrochloride]	–	–	–	–	–	660 nM	96 ± 6%	9.3	71 nM	–	–	–	–	50 ± 2%	–	–	–	–
CCSc1cc(OC)c([C@H]2CCCNC2)cc1OC [Compound 27, (R)-3-(2,5-dimethoxy-4-(ethylthio)phenyl)piperidine hydrochloride]	–	–	–	–	–	780 nM	–	–	190 nM	186 nM	–	–	–	–	–	–	–	–
